Here are results for 1 molecule from patent publication US20260184700A1, “PDK1 REGULATORY COMPOUND AND COMPOSITION CONTAINING THE SAME” (PROVIBIO CO., LTD., priority 2024, published 2026).

For this series, the system named is Human Bladder cancer cell, T24. Nature of the series: Relative cell viability, CCK-8, T24. It is filed as cell-based. The settings on record: 48 hours. The method, then:
Human-derived breast cancer cell line MCF-7, human-derived lung cancer cell line A549, human-derived colorectal cancer cell line HCT-116, human pancreatic cancer cell line AsPC-1, glioblastoma cell line A172, and melanoma cell line Malme-3M were obtained from the Korean Cell Bank. gastric cancer cell line SNU-719, and bladder cancer cell line T24 were cultured in RPMI-1640 medium containing 10% FBS.
Following stabilization, the cells were harvested using Trypsin-EDTA treatment, centrifuged at 1,200 rpm for 3 minutes, the supernatant was removed, and the cells were resuspended in the same medium. They were then seeded into a 96-well plate (Costar 96-well cell culture plate, Corning) at 100 μL per well, and the conditions were adjusted as indicated in Table 5.
The cells were cultured in a 5% CO2 incubator at 37° C. for 24 hours, and after stabilization of the cells, each plate was washed with 200 μL of PBS per well and treated with 50 μL of culture medium per well. […]
After that, 10 μL of CCK-8 was added to each well, and the plate was incubated again at 37° C. in a 5% CO2 incubator for 2 hours.
In other words, when the survival rate of untreated cells (DMSO) is set at 100%, the relative cell survival rate in each group treated with the drug at different concentrations is indicated.

Consider `CC1(C)CN(CCCCCCCCCCCCC(=O)Nc2nc(N)c3[nH]cnc3n2)CCO1` [Compound 11, 12-[4-(2,2-dimethylmorpholin-4-yl)]dodecyl-N-(6-aminopurine-2-yl)carboxamide], for which the “Relative cell viability (%)” value (T24, 1 μM) came out at 28.15%; the “Relative cell viability (%)” value (T24, 10 μM) is 31.17%; the “Relative cell viability (%)” value (T24, 30 μM) stood at 30.42%; the “Relative cell viability (%)” value (T24, 50 μM) is reported as 29.34%.
